Data published in US20250186520A1, “ONCOLYTIC VIRUS COMPOSITIONS AND METHODS FOR THE TREATMENT OF CANCER” (priority 2020, published 2025).

Assays:
[1] = test system: human NK cells co-cultured with GBM30 cells; assay: NK cell activation assay (CD69, granzyme B by flow cytometry); assay type: cell-based; settings: purified protein
Method: (§1) NK cell cytotoxicity was evaluated as previously described (13,64,65). Briefly, U251T2, GBM30, Gli36ΔEGFR, and CT2A-hEGFR cells were used as target cells. The target cells were labeled with ^51Cr for 1 h, followed by incubation with 5 μg/ml or 10 μg/ml of the Cmab-hCCL5 fusion protein or IgG1 isotype control for 30 min. The labeled target cells preincubated with the Cmab-hCCL5 fusion protein or IgG1 were co-cultured with isolated human primary NK cells at different effector:target ratios at 37° C. for 4 h. Release of ^51Cr was measured as counts per minute (cpm) with a MicroBeta(2) microplate radiometric counter (Perkin Elmer, Waltham, MA). […] The cell lysis percentages were calculated using the standard formula: 100×(cpm experimental release−cpm spontaneous release)/(cpm maximal release−cpm spontaneous release). […] The expression of CD69 and granzyme B, NK cell activation markers, were measured after 6-hour co-culture of NK cells and GBM30 cells with 5 μg/ml or 10 μg/ml of Cmab-hCCL5 at a ratio of 1:1 with a flow cytometer after the cells were stained with the anti-CD56 (BD, cat #557919) and anti-CD69 (BD, cat #562883) or anti-granzyme B (BD, cat #563388) antibodies. Following similar procedures, mouse CD69 was measured by an anti-CD69 (BD, cat #564683) antibody, and NK cells were marked by an anti-NKp46 (Biolegend, cat #137618) antibody.

[2] = test system: human NK cells, macrophages, CD4^+ T cells, and CD8^+ T cells; assay: Transwell cell migration assay, human immune cells; assay type: cell-based; settings: protein purified from CHO cells; vs IgG1 isotype control
Method: The migration capability of NK cells, T cells, and macrophages was determined using transwell chambers (Corning). Serum-starved NK cells, T cells or macrophages (10^6/well) were seeded to an upper chamber. Recombinant human (rh) CCL5, recombinant mouse (rm) CCL5, purified Cmab-hCCL5 or Cmab-mCCL5, or the supernatant containing Cmab-hCCL5 or Cmab-mCCL5 secreted from OV-Cmab-hCCL5- or OV-Cmab-mCCL5-infected U251T2 GBM cells was added to the lower chamber. The chambers were incubated at 37° C. in 5% CO2 for 12 h. Cells that migrated to the lower face of the porous membrane in the lower chamber were counted. For the T cells and NK cells, the pore size of the transwell membrane used in this assay was 3 μm as previously described (61,62). For the macrophages, the pore size of the transwell membrane used in this assay was […] as previously described (63).

Gli36ΔEGFR cells = assay: NK cell cytotoxicity (51Cr release) against TMZ-pretreated cells; assay type: cell-based, human
Method: TMZ, which is an imidazotetrazine that is converted to a compound capable of alkylating DNA, interferes with DNA replication and leading to cytotoxicity in proliferating cells, and has been in clinical trials for treating GBM. To detect whether OV-Cmab-CCL5 enhanced TMZ function for treating GBM, the combination therapy with OV-Cmab-CCL5 and TMZ in vivo and in vitro was performed. Gli36ΔEGFR cells were treated with 1 μM TMZ overnight, and the pretreated cells were ^51Cr-labeled and used as target cells. These cells were then incubated with 5 μg/ml Cmab-hCCL5 or vehicle for 30 min. The effector NK cells and target cells were then co-cultured at the ratios of 40:1, 20:1, and 10:1 for 4 hours and assayed for cytotoxicity. […] This function was also detected as induced by the supernatants from OV-Cmab-hCCL5-infected Gli36ΔEGFR cells. Consistent data were collected.

[3] = test system: U251T2 (wtEGFR), GBM30, Gli36ΔEGFR (EGFRvIII) GBM cells; assay: NK cell ADCC, 51Cr release assay, EGFR+ targets; assay type: cell-based, human; settings: purified protein; wtEGFR and EGFRvIII tumor cells; vs IgG1 isotype control
Method: as §1

EGFR^− A2780 cells = assay: EGFR binding assay by flow cytometry on EGFR-negative cells; design: species or system human; settings: protein purified from CHO cells; vs IgG1 isotype control
Method: (§2) U251T2, U87ΔEGFR, and A4780 cells were pre-blocked with 2% BSA and incubated with 1, 5, or 10 μg/ml purified Cmab-hCCL5 or 1, 5, or 10 μg/ml human IgG1 isotype control for 30 min. Murine CT2A-hEGFR cells were pre-blocked with 2% BSA and then incubated with 1, 5, or 10 μg/ml purified Cmab-mCCL5 or 1, 5, or 10 μg/ml human IgG1 isotype control for 30 min. After incubation, all cells were washed twice, and human cell lines were stained with APC-conjugated anti-human Fc (Jackson ImmunoResearch, cat #209-605-098) or APC-conjugated anti-human CCL5 (Biolegend, cat #515506, 149103) antibodies, whereas the murine CT2A-hEGFR cells were stained with APC-conjugated anti-human Fc or PE-conjugated anti-mouse CCL5 antibodies, for 20 min. The stained cells were analyzed using a Fortessa X20 flow cytometer (BD Biosciences).

GBM30 cells = assay: Flow cytometry-based phagocytosis (ADCP) assay, human macrophages; assay type: cell-based; settings: purified protein; vs IgG1 isotype control or vehicle
Method: For the phagocytosis assay of primary human macrophages, GBM30 cells stained with CFSE (Thermo Fisher, cat #C34554) were used as target cells. Human macrophages and target cells were co-cultured at a ratio of 1:2 for 6 hours with 5 μg/ml or 10 μg/ml of the Cmab-hCCL5 fusion protein or IgG1 isotype control in a humidified, 5% CO2 incubator at 37° C. in ultra-low-attachment 96-well U-bottom plates (Corning) in serum-free 1640 media (Life Technologies). The co-cultured cells were harvested by centrifuging at 400×g for 5 min at 4° C. and stained with an anti-human CD45 antibody (Biolegend, cat #368516) to identify macrophages. All flow cytometry data were collected using a Fortessa X20 flow cytometer (BD Biosciences). Phagocytosis was measured as the number of CD45^+CFSE^+ macrophages, quantified as a percentage of the total CD45^+ cells.

[4] = test system: EGFR (wtEGFR U251T2 and EGFRvIII U87ΔEGFR GBM cells); assay: EGFR binding assay and CCL5 expression assay by flow cytometry (anti-human Fc / anti-human CCL5); settings: protein purified from CHO cells
Method: as §2

[5] = molecular target: T1, EGFR (wtEGFR U251T2 and EGFRvIII U87ΔEGFR GBM cells) (Homo sapiens, UniProt P00533); assay: as above
T1 construct: U251T2 GBM cells, which express wild type EGFR (wtEGFR), U87ΔEGFR GBM cells, which express EGFRvIII; endogenous in cells; host or cells: U251T2 (wtEGFR) and U87ΔEGFR (EGFRvIII) human GBM cells
Method: as §2

[6] = test system: human macrophages co-cultured with GBM30 cells; assay: Quantitative PCR of human macrophage cytokine genes; assay type: cell-based; settings: vs IgG1 isotype control
Method: For evaluating the effect of Cmab-hCCL5 on mRNA levels of typical human macrophage cytokine genes, human macrophages and GBM30 cells were co-cultured at a ratio of 1:1 for 6 hours with or without 5 μg/ml Cmab-hCCL5. The macrophages were stained with anti-human CD45 antibody and sorted using an Aria Fusion flow cytometer (BD Biosciences). The total RNA was extracted from the sorted macrophages for measuring the mRNA levels of human IL1B, IL6, IL12A, and NOS2 genes with their corresponding primers. 18s rRNA was used as an internal control.

Molecule	CD69 expression on NK cells ([1]; 6 hours, vs IgG1 isotype control or GBM30 cells alone)	granzyme B expression in NK cells ([1]; relative to controls)	migration of human NK cells, macrophages, CD4^+ and CD8^+ T cells [2]	NK cell cytotoxicity (Gli36ΔEGFR cells; 1 μM TMZ pre-treatment plus 5 μg/ml Cmab-hCCL5, vs either treatment alone)	NK cell ADCC [3]	binding to EGFR^− A2780 cells (anti-human Fc antibody) (EGFR^− A2780 cells)	ADCP against GBM30 cells by human macrophages (GBM30 cells)	CCL5 on cell surface (anti-CCL5 antibody) ([4]; EGFR^+ cells)	binding to tumor cells (anti-human Fc antibody) ([4]; U251T2 (wtEGFR) and U87ΔEGFR (EGFRvIII) cells)	secretion of cetuximab or CCL5, comparison of Cmab-CCL5 and reverse-order CCL5-Cmab ([5]; FIGS. 14C, 14D: flow cytometry on U251T2 with anti-Fc / anti-hCCL5)	binding to surface-expressed EGFR (anti-Fc and anti-CCL5 antibodies) ([5]; protein produced by OV-Cmab-hCCL5-infected U251T2 GBM cells)	cytokine expression in human macrophages (real-time RT-PCR) [6]	NK cell cytotoxicity (Gli36ΔEGFR cells; 1 μM TMZ overnight pre-treatment alone)
Cmab-hCCL5: bispecific knob-into-hole human IgG1 Fc fusion protein: cetuximab scFv arm and human CCL5 arm	significantly increased the expression of CD69	increased granzyme B expression	dose-dependent increase in the migration	significantly higher degree of NK cell cytotoxicity	significantly induced NK cell ADCC	indistinguishable from that of IgG1 isotype control	induced a significantly higher level of ADCP	detected CCL5 on EGFR^+ cell surfaces	selectively bound to tumor cells expressing wtEGFR or EGFRvIII	no difference	confirmed to bind to surface-expressed EGFR	significantly increased IL-1B, IL-6, IL-12, and NOS2 expression	
Cn1nnc2c(C(N)=O)ncn2c1=O [TMZ, Temozolomide, reference compound]													enhanced NK cell cytotoxicity
